Measured values: patent US8124637B2, “Anthra [1, 2-d]imidazole-6,11-dione derivatives, preparation method and application thereof” (National Defense Medical Center, priority 2010, dated 2012)

Legend:
[1] = MTT assay (relative cell survival), H1299; details: human, H1299 non-small cell lung cancer cells (PhTERT-SEAP), Relative MTT viability (%)
Method: Further, cells were subjected to MTT assay to compare the relative toxicity or effect of each compound on cell proliferation and activity.
The above-described cells are cultured in a 96-well plate, to which was added with 25 μl MTT solution, and cultured in a 37° C. carbon dioxide incubator for 4 hours. Then, 100 μl Lysis buffer is added and incubated in a 37° C. carbon dioxide incubator overnight. An ELISA reader (Bio-Rad Model 450) is used to read optical density (O.D.) at 550 nm.
After being subjected to different compound treatments for 72 hours, cells were treated with a fixed amount of MTT solution for 28 hours. Then, DMSO was used to dissolve back formazan, an O. D. value was detected at wavelength in the range of 550/670 nm, and calculated accordingly the cell survival rate (as shown in Table 1).

[2] = tested on: hTERT promoter (PhTERT) expression; experiment: SEAP assay (PhTERT-SEAP reporter, H1299); assay type: cell-based, human; details: Homo sapiens, NCI-H1299, PhTERT-SEAP (H1299); for activity at 1 µM: read-out: Relative SEAP activity (%); for activity at 10 µM / activity at 100 µM: read-out: Relative SEAP activity (%) (converted)
Method: H1299 were grown in RPMI 1640 media supplemented with 10% fetal bovine serum, 100 units/mL penicillin and […] streptomycin in a humidified atmosphere with 5% CO2 at 37° C. Culture media were changed every three days. To establish stable cell lines that the expression of hTERT could be monitored by a reporter system, a about 3.3 kbp DNA fragment ranging from −3338 to +1 bp of the hTERT gene (hTERT promoter, PhTERT) was subcloned upstream to a secreted alkaline phosphatase gene (SEAP) and transfected into H1299 bp electroporation. The stable clones were selected using G418. The stable clones derived from H1299 were cultured using conditions that are similar to their parental cells.
Secreted alkaline phosphatase was used as the reporter system to monitor the transcriptional activity of hTERT. Here, about 10^4 cells each were grown in 96-well plates and incubated at 37° C. for 24 hours and changed with fresh media. Varying amounts of drugs were added and cells were incubated for another 24 hours. Culture media were collected and heated at 65° C. for 10 min to inactivate heat-labile phosphatases. An equal amount of SEAP buffer (2 M diethanolamine, 1 mM MgCl2, and 20 mM L-homoarginine) was added to the media and p-nitrophenyl phosphate was added to a final concentration of 12 mM. Absorptions at 405 nm were taken, and the rate of absorption increase is determined (the increasing rate of absorbance at 405 nm was used to represent the activity of SEAP).

Row | Compound | viability at 72 h, 1 µM [1] [%] | viability at 72 h, 10 µM [1] [%] | viability at 72 h, 100 µM [1] [%] | activity at 1 µM [2] [%] | activity at 10 µM [2] [%] | activity at 100 µM [2] [%]
1 | O=C1c2ccccc2C(=O)c2c1ccc1nc(CN3CCN(c4ccccc4F)CC3)[nH]c21 [CL30, 2-((4-(2-fluorophenyl)piperazin-1-yl)methyl)-1H-anthra[1,2-d]imidazole-6,11-dione] | 88.4 ± 2.16 | 76.7 | 14.8 | 103 ± 3.44 | 78.2 | -0.29
2 | O=C1c2ccccc2C(=O)c2c1ccc1nc(CNCc3ccc(C(F)(F)F)cc3)[nH]c21 [CL14, 2-((4-(trifluoromethyl)benzylamino)methyl)-1H-anthra[1,2-d]imidazole-6,11-dione] | 74.3 ± 4.04 | 10.6 |  | 51.6 ± 0.68 | 78.5 | 2.56
3 | O=C1c2ccccc2C(=O)c2c1ccc1nc(CN3CCSC3)[nH]c21 [CL23, 2-((thiazolidin-3-yl)methyl)-1H-anthra[1,2-d]imidazole-6,11-dione] | 89.3 ± 4.79 | 75.5 | 5.18 | 106 ± 3.01 | 85.6 | 11.9
4 | O=C1c2ccccc2C(=O)c2c1ccc1nc(CNCc3ccccc3C(F)(F)F)[nH]c21 [CL12, 2-((2-(trifluoromethyl)benzylamino)methyl)-1H-anthra[1,2-d]imidazole-6,11-dione] | 98.5 ± 5.49 | 96.3 | 6.32 | 87.3 ± 3.26 | 81.2 | -1.71
5 | CCN(C)Cc1nc2ccc3c(c2[nH]1)C(=O)c1ccccc1C3=O [CL03, 2-((ethylmethylamino)methyl)-1H-anthra[1,2-d]imidazole-6,11-dione] | 98.9 ± 3.64 | > 50 |  | 97.1 ± 12 | < 50 | -2.69
6 | N#Cc1ccccc1N1CCN(Cc2nc3ccc4c(c3[nH]2)C(=O)c2ccccc2C4=O)CC1 [CL31, 2-((4-(2-cyanophenyl)piperazin-1-yl)methyl)-1H-anthra[1,2-d]imidazole-6,11-dione] | 78.3 ± 5.02 | 61.7 | 21.6 | 106 ± 4.67 | 56.7 | 5.59
7 | CN1CCN(CCc2nc3ccc4c(c3[nH]2)C(=O)c2ccccc2C4=O)CC1 [CL36, 2-(2-(4-methylpiperazin-1-yl)ethyl)-1H-anthra[1,2-d]imidazole-6,11-dione] | 87.2 ± 6.98 | < 50 |  | 73.9 ± 3.2 | 7.1 | -3.06
8 | C=CCN1CCN(Cc2nc3ccc4c(c3[nH]2)C(=O)c2ccccc2C4=O)CC1 [CL26, 2-((4-allylpiperazin-1-yl)methyl)-1H-anthra[1,2-d]imidazole-6,11-dione] | 86 ± 3.37 | 44.8 |  | 87.2 ± 1.82 | 16.7 | -6.77
9 | O=C1c2ccccc2C(=O)c2c1ccc1nc(CCN3CCN(Cc4ccccc4)CC3)[nH]c21 [CL40, 2-(2-(4-benzylpiperazin-1-yl)ethyl)-1H-anthra[1,2-d]imidazole-6,11-dione] | 95.6 ± 8.22 | > 50 | 6.65 | 73 ± 8.24 |  | -7.29 ± 0.0949
10 | CN(Cc1nc2ccc3c(c2[nH]1)C(=O)c1ccccc1C3=O)CC1OCCO1 [CL08, 2-(((1,3-dioxolan-2-yl)-N-methylmethanamino)methyl)-1H-anthra[1,2-d]imidazole-6,11-dione] | 104 ± 3.91 | 89.8 | 28.3 | 90.4 ± 2.87 | 68.7 | 6.78
11 | O=C(CCCl)Nc1ccc2c(c1NC(=O)CCCl)C(=O)c1ccccc1C2=O [CL34, 1,2-bis(3-chloropropionamido)anthraquinone] | 94.1 ± 3.21 | < 50 | 5.85 ± 2.1 | 87.4 ± 4.51 | 12.5 ± 4.35 | -2.74 ± 0.61
12 | O=C1c2ccccc2C(=O)c2c1ccc1nc(CN3CCN(Cc4ccccc4)CC3)[nH]c21 [CL33, 2-((4-benzylpiperazin-1-yl)methyl)-1H-anthra[1,2-d]imidazole-6,11-dione] | 92.6 ± 1.56 | > 50 | 12.7 | 97.8 ± 7.2 |  | -2.7
13 | O=C1c2ccccc2C(=O)c2c1ccc1nc(CN(Cc3ccccn3)Cc3ccccn3)[nH]c21 [CL10, 2-((di-(2-picolyl)amino)methyl)-1H-anthra[1,2-d]imidazole-6,11-dione] | 101 ± 5.98 |  |  | 86.5 ± 3.63 | -6.44 | -7.58
14 | O=C1c2ccccc2C(=O)c2c1ccc1nc(CN3CCN(c4ncccn4)CC3)[nH]c21 [CL29, 2-((4-(pyrimidin-2-yl)piperazin-1-yl)methyl)-1H-anthra[1,2-d]imidazole-6,11-dione] | 85.5 ± 3.17 | 73.7 | 28.2 | 111 ± 3.55 | 92.2 | 19.4
15 | O=C1c2ccccc2C(=O)c2c1ccc1nc(CCN3CCN(c4ncccn4)CC3)[nH]c21 [CL39, 2-(2-(4-(pyrimidin-2-yl)piperazin-1-yl)ethyl)-1H-anthra[1,2-d]imidazole-6,11-dione] | 90.7 ± 5.81 |  |  | 83 ± 3.61 | < 50 | -8.09
16 | O=C1c2ccccc2C(=O)c2c1ccc1nc(CN3CCOCC3)[nH]c21 [CL21, 2-(morpholinomethyl)-1H-anthra[1,2-d]imidazole-6,11-dione] | 89.8 ± 2.58 | 70.8 | 13.4 | 102 ± 4.81 | 97.3 | 25.6
17 | O=C1c2ccccc2C(=O)c2c1ccc1nc(CNCc3ccc4c(c3)OCO4)[nH]c21 [CL15, 2-((piperonylamino)methyl)-1H-anthra[1,2-d]imidazole-6,11-dione] | 109 ± 2.02 | 103 | 14.2 | 74.5 ± 14.3 | 74.6 ± 17.4 | 1.32
18 | O=C1c2ccccc2C(=O)c2c1ccc1nc(CN3CCCCCC3)[nH]c21 [CL18, 2-((azepan-1-yl)methyl)-1H-anthra[1,2-d]imidazole-6,11-dione] | 104 ± 6.82 | 85.1 |  | 107 ± 5.16 | 66.5 | 3.79
19 | O=C1c2ccccc2C(=O)c2c1ccc1nc(CN3CCSCC3)[nH]c21 [CL22, 2-(thiomorpholinomethyl)-1H-anthra[1,2-d]imidazole-6,11-dione] | 91.8 ± 3.61 | 77.5 | 0.93 | 115 ± 2.45 | 76.7 | 4.62
20 | COc1cccc(CN(C)Cc2nc3ccc4c(c3[nH]2)C(=O)c2ccccc2C4=O)c1 [CL09, 2-((3-methoxy-N-methybenzylamino)methyl)-1H-anthra[1,2-d]imidazole-6,11-dione] | 96.6 ± 5.02 | 97.6 | 9.24 | 105 ± 3.38 | 78.1 | -3.01
21 | CCCN(C)Cc1nc2ccc3c(c2[nH]1)C(=O)c1ccccc1C3=O [CL05, 2-((methylpropylamino)methyl)-1H-anthra[1,2-d]imidazole-6,11-dione] | 93.5 ± 7.25 |  |  | 96 ± 6.58 | < 50 | -0.38
22 | CN(C)Cc1nc2ccc3c(c2[nH]1)C(=O)c1ccccc1C3=O [CL02, 2-((dimethylamino)methyl)-1H-anthra[1,2-d]imidazole-6,11-dione] | 98.9 ± 6.37 | > 50 |  | 83.6 ± 8.52 | < 50 | -2.26
23 | O=C1c2ccccc2C(=O)c2c1ccc1nc(CN3CCC4(CC3)OCCO4)[nH]c21 [CL19, 2-((1,4-dioxa-8-azaspiro[4.5]decane-8-yl)methyl)-1H-anthra[1,2-d]imidazole-6,11-dione] | 103 ± 2.09 | 79.2 | 14.8 | 97 ± 1.84 | 95.5 | 14.1
